Experiments:
HNF4α [1] = target: T1, HNF4α (Homo sapiens, UniProt P41235); assay: Cell-based human insulin promoter reporter assay sensitive to HNF4α activity
T1 sequence (P41235 1-474): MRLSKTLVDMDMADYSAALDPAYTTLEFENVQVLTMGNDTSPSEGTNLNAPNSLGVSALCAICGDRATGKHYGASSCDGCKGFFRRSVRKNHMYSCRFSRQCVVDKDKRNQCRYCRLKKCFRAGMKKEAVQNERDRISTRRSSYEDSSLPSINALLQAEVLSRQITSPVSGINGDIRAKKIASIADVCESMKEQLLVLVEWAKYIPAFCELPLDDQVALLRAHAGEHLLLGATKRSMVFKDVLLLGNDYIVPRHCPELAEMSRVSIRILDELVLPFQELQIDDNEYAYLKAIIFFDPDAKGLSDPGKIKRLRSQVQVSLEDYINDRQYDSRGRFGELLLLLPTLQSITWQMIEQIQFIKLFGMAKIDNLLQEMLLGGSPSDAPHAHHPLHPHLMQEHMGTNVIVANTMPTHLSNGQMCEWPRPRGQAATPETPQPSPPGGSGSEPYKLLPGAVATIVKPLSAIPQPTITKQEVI
From the text: HNF4α is a nuclear receptor transcription factor that controls the expression of downstream genes that are important in multiple aspects of cellular metabolism. The classical view of HNF4α has been that its ligand binding pocket (LBP) is constitutively occupied by a fatty acid that plays a structural rather than regulatory role. However, it has been shown recently that the fatty acids in the HNF4α LBP are exchangeable in the context of full length HNF4α, particularly inside the cell. […] Using the assay in high-throughput screening, it was discovered HNF4α antagonists and more recently agonists. […] Previously, it was shown that intraperitoneal (IP) administration of NCT reversed hepatic steatosis in obese mice fed a high fat diet through a previously unsuspected pathway involving regulation by HNF4α of dihydroceramide synthesis.

palmitate-loaded cells = assay: Fat clearance from palmitate-loaded cells; type: cell-based; settings: in vitro
HNF4α [2] = target: T1, HNF4α; settings: cited from earlier work

Structure (SMILES) | HNF4α agonist activity (HNF4α [1]) | fat clearance from palmitate-loaded cells (palmitate-loaded cells) | HNF4α activator activity of known drugs (HNF4α [2])
COc1cc(/C=C/C(=O)NCCc2ccc(O)cc2)ccc1O [NFT, N-transferuloyltyramine] | strong HNF4α agonists | induced fat clearance | –
CCN(CCCc1ccccc1)CCCc1ccccc1 [alverine] | – | – | weak HNF4α activators
CC(Cc1cccc(C(F)(F)F)c1)NCCOC(=O)c1ccccc1 (stereo not shown) [benfluorex] | – | – | weak HNF4α activators

Reference: patent US20240374546A1, “USES AND METHODS FOR PROMOTING INCREASED MITOCHONDRIAL MASS AND FUNCTION” (Brightseed, Inc., priority 2022, published 2024)
